{"source": "ChEMBL document CHEMBL1130554", "about": "“BMS-200475, a novel carbocyclic 2-deoxyguanosine analog with potent and selective anti-hepatitis B virus activity in vitro” (Bioorg Med Chem Lett, 1997)", "key": {"CEM-SS [1]": {"system": "CEM-SS", "test": "Tested for cytotoxic concentration against human immunodeficiency virus (HIV) in CEM-SS cells", "type": "functional"}, "Hepatitis B virus [2]": {"system": "Hepatitis B virus", "test": "Tested for cytotoxic concentration against hepatitis B virus", "type": "functional"}, "Hepatitis B virus [3]": {"system": "Hepatitis B virus", "test": "Tested effective dose against hepatitis B virus in vitro", "type": "functional", "conditions": "read-out: ED50 (the source's name)"}, "WI-38 [4]": {"system": "WI-38", "test": "Tested for cytotoxic concentration against varicella zoster virus (VZV) in WI-38 cells", "type": "functional", "conditions": "Homo sapiens"}, "[5]": {"test": "Tested for effective concentration required to inhibit of influenza virus in MDBK cells", "type": "functional, cell-based, Bos taurus"}, "HepG2 [6]": {"system": "HepG2", "test": "Tested for the cytotoxicity against hepatitis B virus (HBV) in HepG2.2.15 cells", "type": "functional", "conditions": "Homo sapiens"}, "HepG2 [7]": {"system": "HepG2", "test": "Tested for the effective concentration required to inhibit HBV in HepG2.2.15 human liver cells", "type": "functional, cell-based"}, "[8]": {"test": "Tested for cytotoxic concentration against influenza virus in MDBK cells", "type": "functional", "conditions": "Bos taurus"}, "WI-38 [9]": {"system": "WI-38", "test": "Tested for cytotoxic concentration against herpes simplex virus type 1 (HSV-1) in WI-38 cells", "type": "functional", "conditions": "Homo sapiens"}, "WI-38 [10]": {"system": "WI-38", "test": "Tested for effective concentration required to inhibit herpes simplex virus type 1 (HSV-1) in WI-38 cells", "type": "functional, cell-based", "conditions": "Homo sapiens"}, "CEM-SS [11]": {"system": "CEM-SS", "test": "Tested for effective concentration to inhibit human immunodeficiency virus (HIV) in CEM-SS cells", "type": "functional, cell-based"}, "HFF": {"system": "HFF", "test": "Tested for effective concentration required to inhibit human cytomegalovirus (HCMV) in HFF cells", "type": "functional, cell-based"}, "WI-38 [12]": {"system": "WI-38", "test": "Tested for effective concentration required to inhibit varicella zoster virus (VZV) in WI-38 cells; 30-60", "type": "functional, cell-based", "conditions": "Homo sapiens"}}, "note": "pEC50: −log10 of the molar value.", "data": [{"smiles": "C=C1[C@H](CO)[C@@H](O)C[C@@H]1n1cnc2c(=O)[nH]c(N)nc21", "note": "[ENTECAVIR]", "values": [{"measurement": "CC50", "setting": "CEM-SS [1]", "result": 21, "unit": "µM"}, {"measurement": "CC50", "setting": "Hepatitis B virus [2]", "result": 21, "unit": "µM"}, {"measurement": "pEC50", "setting": "Hepatitis B virus [3]", "result": 8.52}, {"measurement": "CC50", "setting": "WI-38 [4]", "result": 120, "unit": "µM"}, {"measurement": "pEC50", "setting": "[5]", "result": "< 4.10"}, {"measurement": "CC50", "setting": "HepG2 [6]", "result": 30, "unit": "µM"}, {"measurement": "pEC50", "setting": "HepG2 [7]", "result": 8.52}, {"measurement": "CC50", "setting": "[8]", "result": 78, "unit": "µM"}, {"measurement": "CC50", "setting": "WI-38 [9]", "result": "> 90", "unit": "µM"}, {"measurement": "pEC50", "setting": "WI-38 [10]", "result": "≤ 4.49"}, {"measurement": "pEC50", "setting": "CEM-SS [11]", "result": "< 5.00"}, {"measurement": "pEC50", "setting": "HFF", "result": 4.82}, {"measurement": "pEC50", "setting": "WI-38 [12]", "result": 4.52}]}, {"smiles": "Nc1ccn([C@@H]2CS[C@H](CO)O2)c(=O)n1", "note": "[LAMIVUDINE]", "values": [{"measurement": "pEC50", "setting": "HepG2 [7]", "result": 6.70}]}, {"smiles": "C=C1[C@H](CO)[C@@H](O)C[C@@H]1n1cnc2c(N)ncnc21", "values": [{"measurement": "pEC50", "setting": "HepG2 [7]", "result": 6.89}]}, {"smiles": "C=C1[C@H](CO)[C@@H](O)C[C@@H]1n1cc(I)c(=O)[nH]c1=O", "values": [{"measurement": "pEC50", "setting": "HepG2 [7]", "result": 4.98}]}, {"smiles": "Nc1nc(O)c2ncn(CCC(CO)CO)c2n1", "note": "[PENCICLOVIR]", "values": [{"measurement": "pEC50", "setting": "HepG2 [7]", "result": "≤ 4.00"}]}, {"smiles": "Nc1nc(O)c2ncn([C@@H]3C[C@H](CO)[C@@H](O)C3)c2n1", "values": [{"measurement": "pEC50", "setting": "HepG2 [7]", "result": 7.30}]}, {"smiles": "C=C1[C@@H](CO)[C@H](O)C[C@H]1n1cnc2c(O)nc(N)nc21", "values": [{"measurement": "pEC50", "setting": "HepG2 [7]", "result": 4.00}]}, {"smiles": "C=C1[C@H](CO)[C@@H](O)C[C@@H]1n1cc(C)c(=O)[nH]c1=O", "values": [{"measurement": "pEC50", "setting": "HepG2 [7]", "result": "< 4.00"}]}]}
